Assay results as given in patent CN107531679A, “芳香酰胺类衍生物、其制备方法及其在医药上的应用” (Jiangsu Hengrui Medicine Co Ltd, priority 2016, dated 2017).
Entries after “also recorded” stand apart in the source; their conditions may differ.

How the values were obtained:
RORγ = target: T1, RORγ (Homo sapiens, UniProt P51449); assay: TR-FRET RORγ coactivator assay (LanthaScreen); conditions: RORγ LBD
T1 sequence (P51449 269-508 limits assumed): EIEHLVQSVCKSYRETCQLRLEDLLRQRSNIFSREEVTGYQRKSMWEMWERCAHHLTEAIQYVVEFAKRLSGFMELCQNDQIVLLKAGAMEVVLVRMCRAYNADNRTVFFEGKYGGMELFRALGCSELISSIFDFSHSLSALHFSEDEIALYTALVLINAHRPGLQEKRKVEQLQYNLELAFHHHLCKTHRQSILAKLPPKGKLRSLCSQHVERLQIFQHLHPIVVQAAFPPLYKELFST

[1] = system: MC38 mouse colon tumour [MC38小鼠结肠肿瘤]; assay: In vivo efficacy: MC38 colon tumour growth in syngeneic C57BL/6 mice; conditions: for TGI (tumour growth inhibition rate): MC38 in C57BL/6 mice

effect on RORγ in vitro activity (mode of modulation, in words) (RORγ) | Structure (SMILES) | further results
表现出抑制的效果 | CCS(=O)(=O)c1ccc(CNC(=O)c2ccc3c(c2)cc(Cc2ccc(C(F)(F)F)cc2)n3C(C)C)cc1 [实施例14, N-(4-(乙磺酰基)苄基)-1-异丙基-2-(4-(三氟甲基)苄基)-1H-吲哚-5-甲酰胺] | –
表现出抑制的效果 | CCS(=O)(=O)c1ccc(CNC(=O)c2ccc3c(c2)cc(Cc2ccc(OC(F)(F)F)cc2)n3C(C)C)cc1 [实施例18, N-(4-(乙磺酰基)苄基)-1-异丙基-2-(4-(三氟甲氧基)苄基)-1H-吲哚-5-甲酰胺] | –
表现出激动的效果 | CCS(=O)(=O)c1ccc(CNC(=O)c2ccc3c(c2)cc(Cc2ccc(F)cc2C(F)(F)F)n3C(C)C)cc1 [实施例4, N-(4-(乙磺酰基)苄基)-2-(4-氟-2-(三氟甲基)苄基)-1-异丙基-1H-吲哚-5-甲酰胺] | –
– | CCS(=O)(=O)c1ccc(CNC(=O)c2ccc3c(c2)cc(Cc2ccc(Cl)cc2C(F)(F)F)n3CCF)cc1 [实施例30, 2-(4-氯-2-(三氟甲基)苄基)-N-(4-(乙磺酰基)苄基)-1-(2-氟乙基)-1H-吲哚-5-甲酰胺] | TGI (tumour growth inhibition rate) ([1]; Example 30 (12.5 mg/kg) combined with anti-mouse PD-1 monoclonal antibody (5 mg/mouse)): 68%; synergy in words ([1]; Example 30 combined with PD-1 antibody, MC38 colon tumour model): 较强的协同效应; also recorded: 较强的协同作用; biological activity in vivo in words (RORγ activation versus inhibition) ([1]; MC38 colon tumour model, conclusion of the applicant): 具有与RORγ激活(而非抑制)一致的生物活性; TGI (tumour growth inhibition rate) ([1]; single agent, 12.5 mg/kg, twice daily, 21 days): 34%; antitumour effect in words ([1]; single agent, MC38 colon tumour model): 表现出抑瘤活性
表现出抑制的效果 | CCS(=O)(=O)c1ccc(CNC(=O)c2ccc3c(c2)cc(Cc2cccc(C(F)(F)F)c2)n3C(C)C)cc1 [实施例17, N-(4-(乙磺酰基)苄基)-1-异丙基-2-(3-(三氟甲基)苄基)-1H-吲哚-5-甲酰胺] | –
表现出激动的效果 | CCc1ccccc1Cc1cc2cc(C(=O)NCc3ccc(S(=O)(=O)CC)cc3)ccc2n1C(C)C [实施例10, 2-(2-(乙基苄基)-N-(4-(乙磺酰基)苄基)-1-异丙基-1H-吲哚-5-甲酰胺] | –
表现出抑制的效果 | CCS(=O)(=O)c1ccc(CNC(=O)c2ccc3c(c2)cc(Cc2ccc(C(F)(F)F)cc2F)n3C(C)C)cc1 [实施例15, N-(4-(乙磺酰基)苄基)-2-(2-氟-4-(三氟甲基)苄基)-1-异丙基-1H-吲哚-5-甲酰胺] | –
